According to the supplement of paper PMC11061612:

Tests used:
Test in all cases: Bliss excess, mean over the matrix (fraction); higher = more synergy
HuO-3N1 (Osteosarcoma) = test system: HuO-3N1 (Osteosarcoma)
Outline: (§1)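 Cell lines in DMEM/F12 or RPMI with 10% FBS were plated in 1536-well plates, held 24 hours at 37°C, 5% CO2, then given two-drug dose matrices for 72 hours (DMSO typically 0.2%). Viability was read by CellTiter-Glo 2.0 luminescence and scaled as inhibition from 0 (vehicle wells) to 1 (blank wells). Combination Emax is the second-highest inhibition in the matrix; Bliss excess is observed combination effect minus expected EA + EB − EA·EB, EA and EB being single-agent effects.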

[1] = test system: AN3-CA (Endometrial Carcinoma)
Outline: as §1

[2] = test system: OCI-AML5 (Acute Myeloid Leukemia)
Outline: as §1

[3] = test system: SNU-175 (Colorectal Carcinoma)
Outline: as §1

[4] = test system: OV-90 (Ovarian Carcinoma)
Outline: as §1

[5] = test system: NCI-H196 (Small Cell Lung Carcinoma)
Outline: as §1

[6] = test system: HSC-3 (Oral Cavity Carcinoma)
Outline: as §1

CHL-1 (Melanoma) = test system: CHL-1 (Melanoma)
Outline: as §1

KYM-1 (Rhabdomyosarcoma) = test system: KYM-1 (Rhabdomyosarcoma)
Outline: as §1

[7] = test system: NCI-H1623 (Lung Adenocarcinoma)
Outline: as §1

[8] = test system: AsPC-1 (Pancreatic Carcinoma)
Outline: as §1

[9] = test system: EB-3 (Burkitt's Lymphoma)
Outline: as §1

[10] = test system: PANC-02-03 (Pancreatic Carcinoma)
Outline: as §1

786-0 (Kidney Carcinoma) = test system: 786-0 (Kidney Carcinoma)
Outline: as §1

[11] = test system: PC-14 (Lung Adenocarcinoma)
Outline: as §1

[12] = test system: Caov-3 (Ovarian Carcinoma)
Outline: as §1

[13] = test system: NCI-H1755 (Lung Adenocarcinoma)
Outline: as §1

[14] = test system: FLO-1 (Esophageal Adenocarcinoma)
Outline: as §1

[15] = test system: COLO-684 (Endometrial Carcinoma)
Outline: as §1

[16] = test system: NCI-H1155 (Non-Small Cell Lung Carcinoma)
Outline: as §1

Compound | Bliss excess (HuO-3N1 (Osteosarcoma)) | Bliss excess [1] | Bliss excess [2] | Bliss excess [3] | Bliss excess [4] | Bliss excess [5] | Bliss excess [6] | Bliss excess (CHL-1 (Melanoma)) | Bliss excess (KYM-1 (Rhabdomyosarcoma)) | Bliss excess [7] | Bliss excess [8] | Bliss excess [9] | Bliss excess [10] | Bliss excess (786-0 (Kidney Carcinoma)) | Bliss excess [11] | Bliss excess [12] | Bliss excess [13] | Bliss excess [14] | Bliss excess [15] | Bliss excess [16]
CN(CCO)CC[C@H](CSc1ccccc1)Nc1ccc(S(=O)(=O)NC(=O)c2ccc(N3CCC([C@@H](O)c4ccccc4-c4ccc(Cl)cc4)CC3)cc2)cc1S(=O)(=O)C(F)(F)F [AZD4320] + C[C@@H](Nc1cc(F)cc(F)c1)c1cc(C(=O)N(C)C)cc2c(=O)cc(N3CCOCC3)oc12 [AZD8186] (first compound max 1 µM, 7x7, partner max 3 µM) | 0.0557 | -0.0339 | 0.0823 | -0.0233 | -0.0073 | 0.0427 | 0.0482 | 0.0322 | 0.0193 | 0.0105 | -0.0141 | 0.0368 | -0.0465 | -0.0081 | 0.0228 | -0.019 | 0.012 | -0.0261 | 0.0193 | 0.075
CN(CCO)CC[C@H](CSc1ccccc1)Nc1ccc(S(=O)(=O)NC(=O)c2ccc(N3CCC([C@@H](O)c4ccccc4-c4ccc(Cl)cc4)CC3)cc2)cc1S(=O)(=O)C(F)(F)F [AZD4320] + Cc1cc2ncnn2cc1Nc1ncc2c(n1)n(C1CCOCC1)c(=O)n2C [AZD7648] (first compound max 1 µM, 7x7, partner max 10 µM) | 0.0015 | -0.0057 | 0.0193 | -0.006 | -0.055 | -0.0395 | -0.0051 | -0.0391 | -0.018 | -0.0206 | -0.0575 | -0.0076 | -0.0568 | -0.0428 | -0.0188 | -0.0199 | -0.0279 | -0.0358 | -0.0221 | 0.017
CN(CCO)CC[C@H](CSc1ccccc1)Nc1ccc(S(=O)(=O)NC(=O)c2ccc(N3CCC([C@@H](O)c4ccccc4-c4ccc(Cl)cc4)CC3)cc2)cc1S(=O)(=O)C(F)(F)F [AZD4320] + Cn1cnc2c(F)c(Nc3ccc(Br)cc3Cl)c(C(=O)NOCCO)cc21 [Selumetinib] (first compound max 1 µM, 7x7, partner max 3 µM) | -0.0194 | 0.0455 | 0.0137 | 0.0316 | 0.0304 | -0.0339 | 0.0228 | -0.0218 | 0.0283 | 0.162 | 0.0314 | -0.036 | -0.007 | -0.0187 | 0.0379 | -0.0406 | 0.0081 | 0.0109 | 0.0023 | 0.0385
Cc1c2c(nn1C)CSCc1cc(n(C)n1)CSc1cc(c3ccccc3c1)OCCCc1c(C(=O)O)n(C)c3c-2c(Cl)ccc13 [AZD5991] + C1CN(CCC1(C(=O)N[C@@H](CCO)C2=CC=C(C=C2)Cl)N)C3=NC=NC4=C3C=CN4 [Capivasertib] (first compound max 1 µM, 7x7, partner max 3 µM) | 0.0122 | 0.145 | -0.0204 | 0.0213 | 0.0139 | -0.0499 | -0.0539 | 0.0092 | 0.0807 | 0.0471 | -0.0881 | -0.0013 | -0.037 | -0.0189 | 0.0145 | -0.01 | 0.0186 | -0.0072 | -0.0411 | 0.0369
Cc1c2c(nn1C)CSCc1cc(n(C)n1)CSc1cc(c3ccccc3c1)OCCCc1c(C(=O)O)n(C)c3c-2c(Cl)ccc13 [AZD5991] + C=CCn1c(=O)c2cnc(Nc3ccc(N4CCN(C)CC4)cc3)nc2n1-c1cccc(C(C)(C)O)n1 [AZD1775] (first compound max 1 µM, partner max 1 µM) | 0.006 | -0.0512 | -0.0036 | -0.0185 | -0.0929 | -0.0266 | 0.0184 | -0.0218 | 0.0583 | 0.0167 | 0.0293 | -0.0242 | -0.0195 | -0.0387 | -0.001 | -0.0274 | 0.0006 | -0.0047 | -0.0587 | 0.0707
Cc1c2c(nn1C)CSCc1cc(n(C)n1)CSc1cc(c3ccccc3c1)OCCCc1c(C(=O)O)n(C)c3c-2c(Cl)ccc13 [AZD5991] + CC1(C)CCC(CN2CCN(c3ccc(C(=O)NS(=O)(=O)c4ccc(NCC5CCOCC5)c([N+](=O)[O-])c4)c(Oc4cnc5[nH]ccc5c4)c3)CC2)=C(c2ccc(Cl)cc2)C1 [Venetoclax] (first compound max 1 µM, 7x7, partner max 1 µM) | 0.0087 | 0.111 | 0.0667 | 0.107 | -0.0303 | -0.0251 | 0.005 | 0.227 | 0.0117 | 0.0111 | -0.0698 | -0.0151 | -0.0304 | -0.034 | 0.0054 | 0.0262 | -0.0422 | -0.0597 | -0.005 | -0.0079
